Test results from patent US5081131A, “Omega-((hetero)alkyl)benz(cd)-indol-2-amines” (American Cyanamid Company, priority 1988, dated 1992).
Structures can show the parent of a compound that is named as a salt.

molecular target: T1, thromboxane synthetase enzyme (Rattus norvegicus, UniProt P49430); experiment: Thromboxane synthetase enzyme inhibition (TXB2 formation in washed platelets, RIA); assay type: cell-based, spontaneously hypertensive rat; conditions: 1×10^-4 Molar; SHR platelets, 10 min at 37° C.
T1 construct: endogenous in cells; host or cells: washed platelets from arterial blood of male Okamoto-Aoki spontaneously hypertensive rats (animals from Taconic Farms, Germantown, N.Y.)
T1 sequence (P49430 1-533): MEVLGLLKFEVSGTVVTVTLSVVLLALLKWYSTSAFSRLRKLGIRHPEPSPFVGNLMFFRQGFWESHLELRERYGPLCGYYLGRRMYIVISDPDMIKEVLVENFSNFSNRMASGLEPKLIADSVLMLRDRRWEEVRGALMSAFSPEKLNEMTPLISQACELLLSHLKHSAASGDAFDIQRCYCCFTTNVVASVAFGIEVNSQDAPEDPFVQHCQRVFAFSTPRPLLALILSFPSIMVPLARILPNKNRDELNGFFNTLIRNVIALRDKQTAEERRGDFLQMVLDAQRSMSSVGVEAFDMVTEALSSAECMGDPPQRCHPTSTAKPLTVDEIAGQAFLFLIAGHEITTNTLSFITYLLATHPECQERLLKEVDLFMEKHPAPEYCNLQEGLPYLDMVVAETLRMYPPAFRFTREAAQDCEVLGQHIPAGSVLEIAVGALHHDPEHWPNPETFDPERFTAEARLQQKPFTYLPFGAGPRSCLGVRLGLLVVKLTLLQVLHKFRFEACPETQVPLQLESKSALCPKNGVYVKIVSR
Description: The blood was diluted with 3 ml cold saline and centrifuged at room temperature for 15 min at 468×g. The platelet rich plasma (PRP) was separated. The platelets were isolated by certrifuging the PRP for 10 minutes at 1060×g and washed in 4 ml cold oxygenated Krebs phosphate buffer, pH 7.4. The chilled platelets recovered from centrifuging at 800×g for 10 minutes were resuspended in oxygenated Krebs phosphate buffer and diluted to contain 4.0-6.0×10^4 platelets/micro-liters. The inhibition of TX formation was studied by determining the concentration of thromboxane B2 (TXB2), the stable hydrolysis product of TXA2. Assay samples prepared on ice, contained 200 micro-liters platelet suspension, 50 micro-liters saline, and 50 micro-liters […] (saline) or drug under study. The test drug (0.003 mole) was dissolved in 5 ml of saline. […] The assay samples were incubated for 10 minutes at 37° C. in a metabolic shaker at about 60 rpm. The reaction was terminated by immersing the tubes in an ice bath and adding 50 micro-liters of 0.5M citric acid. The samples were centrifuged for 10 minutes at 2000 rpm at 4° C., and the supernatants were decanted.

| SMILES | % Inhibition (Thromboxane Synthetase Enzyme Inhibition) |
| --- | --- |
| c1cc2c3c(cccc3c1)C(NCCCCn1ccnc1)=N2 [N-(4-(1H-imidazol-1-yl)butyl)benz(cd)indol-2-amine, hydriodi] [N-(4-(1H-imidazol-1-yl)butyl)benz(cd)indol-2-amine, hydriodide] | 100% |
| c1cc2c3c(cccc3c1)C(NCCCCn1ccnc1)=N2 [N-(4-(1H-imidazol-1-yl)butyl)benz(cd)indol-2-amine sesquibut] [N-(4-(1H-imidazol-1-yl)butyl)benz(cd)indol-2-amine sesquibutanedioic acid salt] | 98% |

same assay, conditions: 1×10^-4 Molar; SHR platelets, 10 min at 37° C.; read-out: % Inhibition (Thromboxane Synthetase Enzyme Inhibition)

| inhibition at 100 µM | SMILES |
| --- | --- |
| 95% | CC(CCNC1=Nc2cccc3cccc1c23)c1ccncc1 (stereo not shown) [N-(3-(4-pyridinyl)butyl)benz(cd)indol-2-amine] |
| 82% | Cc1nccn1CCCNC1=Nc2cccc3cccc1c23 [N-(3-(2-Methyl-1H-imidazol-1-yl)propyl)benz(cd)indol-2-amine, monohydriodide] |
| 90% | Cn1cccc1CCNC1=Nc2cccc3cccc1c23 [N-(2-(1-Methyl-1H-pyrrol-2-yl)ethyl)benz(cd)indol-2-amine, fumarate] |
| 89% | CN(CCc1ccccn1)C1=Nc2cccc3cccc1c23 [N-Methyl-N-(2-(2-pyridinyl)ethyl)benz(cd)indol-2-amine fumarate] |
| 94% | Brc1ccc2c3c(cccc13)C(NCCCCCCCCCCn1ccnc1)=N2 [6-Bromo-N-(10-(1H-imidazol-1-yl)decyl)benz(cd)indol-2-amine] |
| 92% | c1cc2c3c(cccc3c1)C(NCCCn1ccnc1)=N2 [N-(3-(1H-imidazol-1-yl)propyl)benz(cd)indol-2-amine, fumarate] |
| 95% | c1ccc(CNC2=Nc3cccc4cccc2c34)nc1 [N-(2-Pyridinylmethyl)benz(cd)indol-2-amine, fumarate] |
| 100% | c1ccc(-c2nccn2CCCNC2=Nc3cccc4cccc2c34)cc1 [N-(3-(2-Phenyl-1H-imidazol-1-yl)propyl)benz(cd)indol-2-amine, hydriodide] |
| 97% | N#CCCN(Cc1ccccn1)C1=Nc2cccc3cccc1c23 [N-(2-Cyanoethyl)-N-(2-pyridinylmethyl)benz(cd)indol-2-amine, dihydrochloride] |

test system: spontaneously hypertensive rats; experiment: Hypotensive activity in spontaneously hypertensive rats (MABP); assay type: in vivo, rat (Okamoto strain); conditions: SHR, gavage, two doses of 10 mg/kg or less 24 h apart, MABP at 28 h; average baseline 160±1.5 mm Hg
Description: The novel compounds of the present invention are active hypotensive agents and were tested for hypotensive activity by the method of P. S. Chan and D. Poorvin, Clinical and Experimental Hypertension, 1 (6), 817-830 (1979). Male, 16 week old, spontaneously hypertensive rats of the Okamoto strain, from Taconic Farms, Germantown, N.Y., having an average mean arterial blood pressure of 160±1.5 mm of mercury, were used in the test. One to 4 rats were used per test compound. A rat was dosed by gavage with a test compound, suspended in 2% pre-boiled starch at a concentration of 50 mg/ml, at a doses of 10 mg/kg of body weight or less, with 0.9% sodium chloride loading at a dose of 25 ml/kg of body weight. A second identical dose of the test compound, without sodium chloride loading was given 24 hours later. At 28 hours after initial dose the mean arterial blood pressure (MABP) was measured. The procedure was repeated in a second and third rat when necessary.

| SMILES | Avg. MABP in mm Hg (No. of Rats) |
| --- | --- |
| c1cc2c3c(cccc3c1)C(NCCCCn1ccnc1)=N2 [N-(4-(1H-imidazol-1-yl)butyl)benz(cd)indol-2-amine, hydriodide] | 74 mm Hg |
| O=C(O)/C=C/C(=O)O.c1cc2c3c(cccc3c1)C(NCCn1ccnc1)=N2 [N-(2-(1H-imidazol-1-yl)ethyl)benz(cd)indol-2-amine, fumarate] | 97 mm Hg |
| Clc1ccc2c3c(cccc13)C(NCCCn1ccnc1)=N2 [6-Chloro-N-(3-(1H-imidazol-l-yl)propyl)benz(cd)indol-2-amine] | 124 mm Hg |
| O=C(c1cccc(C(F)(F)F)c1)N(CCCCn1ccnc1)C1=Nc2cccc3cccc1c23 [N-Benz(cd)indol-2-yl-N-(4-(1H-imidazol 1-yl)butyl)-3-trifluoromethylbenzamide] | 77 mm Hg |
| CC(CCNC1=Nc2c(Cl)cc(Cl)c3cccc1c23)n1ccnc1.Cl.Cl (stereo not shown) [6,8-Dichloro-N-(3-(1H-imidazol-1-yl)butyl)benz(cd)indol-2-amine dihydrochloride] | 134 mm Hg |
| CCC(=O)N(CCCCn1ccnc1)C1=Nc2cccc3cccc1c23 [N-Benz(cd)indol-2-yl-N-(4-(1H-imidazol-1-yl)butyl)propanamide] | 83 mm Hg |
| c1cc2c3c(cccc3c1)C(NOCCCCn1ccnc1)=N2 [N-(4-(1H-imidazol-1-yl)butoxy)benz(cd)indol-2-amine] | 111 mm Hg |
| CCC(CC)(CNC1=Nc2cccc3cccc1c23)Cn1ccnc1 [N-(2-Ethyl-2-(1H-imidazol-1-yl)methyl)butylbenz(cd)indol-2-amine sesqui-fumarate] | 112 mm Hg |
